Assay results reported in patent US20070082075A1, “Traditional chinese medicine preparation for treatment of tumor and method of making and using same” (priority 2003, published 2007).
Values joined by “and” are separate entries in the source; they are usually repeats but may differ in a detail not shown here. Identical values can stand only once. Like-named read-outs stand apart in the source and are kept apart here. Marks after values point to notes of the source that are not given here.

Key:
[1] = test system: human gastric cancer cell line MKN; conditions: mouse, in vivo
[2] = test system: human liver cancer cell line QGY; conditions: mouse, in vivo
S180 sarcomas = assay type: in vivo, Kunming mice
mice colon carcinoma C26 = conditions: mouse, in vivo, 30 mg/kg
Lewis lung carcinoma = conditions: mouse, in vivo

For `O=P1(N(CCCl)CCCl)NCCCO1` (centres unmarked) [cyclophosphamide], the inhibition ratio % [1] was 88.11*** % and 89.06*** %, the “tumor weight x ± SD” value [1] was 0.17 ± 0.15 and 0.14 ± 0.05 and the inhibition ratio % [2] was 88.79*** % and 89.05*** %. The “tumor weight x ± SD” value [2] was 0.25 ± 0.14 and 0.22 ± 0.08, the inhibition rate % (S180 sarcomas; 15.0 mg/kg ip × 7) was 45.02*** % and the “tumor weight (g) x ± SD” value (S180 sarcomas; 15.0 mg/kg ip × 7) was 1.71 ± 0.25 g. The inhibition rate % (S180 sarcomas; 30.0 mg/kg ip × 7) was 84.24*** %, the “tumor weight (g) x ± SD” value (S180 sarcomas; 30.0 mg/kg ip × 7) was 0.49 ± 0.12 g and the inhibition ratio % (mice colon carcinoma C26) was 91.02*** % and 79.12*** %. The “tumor weight x ± SD” value (mice colon carcinoma C26) was 0.22 ± 0.06 and 0.19 ± 0.06, the inhibition ratio % (mice colon carcinoma C26; ip) was 91.90*** % and 81.35*** % and the “tumor weight x ± SD” value (mice colon carcinoma C26; ip) was 0.22 ± 0.06 and 0.18 ± 0.06. The inhibition ratio % (Lewis lung carcinoma) was 88.32*** % and 88.49*** % and the “tumor weight x ± SD” value (Lewis lung carcinoma) was 0.25 ± 0.07 and 0.29 ± 0.07.
